Patent US10888556B2, “Method for treating myopia with an nsaid and an anti-muscarinic agent” (KAOHSIUNG CHANG GUNG MEMORIAL HOSPITAL, priority 2013, dated 2021)

Experiments:
human SSPC = experiment: Col2 and α-SMA expression in human SSPC treated with TGF-β2 (western blot); format: cell-based; details: in the presence of TGF-β2 (10 ng/ml), 1 mM atropine, 5 mM ketorolac, 1 mM diclofenac
Protocol: Different concentrations of TGF-β2 were added into 12-wells of SSPCs. After 24 hrs, the images of SSPC morphology were recorded. The total RNA was extracted for further analysis. A chamber slide culture for the immunofluorescence study was performed under the same condition.
The total protein from the sclera was extract by using RIPA protein extraction buffer. After homogenization of scleral tissue, the sample was centrifuged and the supernatant was collected. The protein concentration of each sample was measured using a BCA™ protein Assay Kit (Bio-Rad). Scleral protein samples were standardized and electrophoresed on 10% SDS-PAGE gel, then transferred to a polyvinylidene fluoride transfer membrane (Immun-Blot PVDF Membrane, BIO-RAD) at 21 V for 1 h. Membranes were blocked for 1 h at room temperature with 5% dry milk in PBS with 0.1% Tween and incubated at 4° C. overnight with primary antibodies. Membranes were washed and incubated with 1:10,000 goat anti-mouse or anti-rabbit IgG antibodies conjugated to horseradish peroxidase (Santa Cruz) for 1 h at room temperature and washed again. Membranes were developed by chemiluminescence with the reagent Lumigen TMA-6 (GE Healthcare UK limited, Buckinghumshire, UK) and images were captured with the LAS-4000 imaging system (Fujifilm, Tokyo, Japan). Protein bands were quantified using ImageJ software.
An in vitro study examining the effect of an anti-muscarinic agent and NSAID on Col2 and α-SMA expressions was performed using human SSPC.

SSPCs = experiment: α-SMA and Col2 expression in SSPCs treated with TGF-β2, atropine/ketorolac combination; format: cell-based, mouse; details: in the presence of TGF-β2 10 ng/ml, 0.5 mM atropine, 2.5 mM ketorolac, or combination
Protocol: In brief, sclera from the mouse was obtained and was carefully dissected away from limbus and optic disc under a dissection microscope. After retina and choroid tissues were removed, the scleral tissue was cut into small pieces and digested with 1.5 mg/ml collagenase type I (Worthington Biochemical, Lakewood, USA) and 2 mg/ml of dispase (Roche, Basel, Switzerland) in PBS for 1 h at 37° C. to release individual cells. Individual cells were cultured in α-MEM (Invitrogen, Carlsbad, USA), supplemented with 20% lot-selected FBS (Equitech-Bio, Kerrville, USA), glutamine, penicillin/streptomycin and 100 mM 2-mercaptoethanol (Invitrogen) for 8 to 10 days at 5% CO2, 37° C.
Total RNA from SSPCs or the choroid tissue in each eye was isolated using Trizol (Invitrogen, Carlsbad, Calif.) accordingly to the manufacture's protocol. qRT-PCR analysis was carried out using the iScript one-step RT-PCR kit with SYBR Green (Bio-Rad, Hercules, USA) on an ABI PRISM 7900 HT sequence detection system (Applied Biosystems, Foster City, USA), according to the manufacturer's instructions. […] Ct values of the control gene were subtracted from those of α-SMA and Col2 to provide a semiquantitative analysis, and fold change relative to no treatment was assessed. […]

TNF-α = experiment: Expression of inflammation markers in choroids of FDM mice (real-time PCR); format: in vivo; details: FDM eye of mice, one ketorolac eye drop once a day
Protocol: (§1) Total RNA from SSPCs or the choroid tissue in each eye was isolated using Trizol (Invitrogen, Carlsbad, Calif.) accordingly to the manufacture's protocol. qRT-PCR analysis was carried out using the iScript one-step RT-PCR kit with SYBR Green (Bio-Rad, Hercules, USA) on an ABI PRISM 7900 HT sequence detection system (Applied Biosystems, Foster City, USA), according to the manufacturer's instructions. […] Ct values of the control gene were subtracted from those of α-SMA and Col2 to provide a semiquantitative analysis, and fold change relative to no treatment was assessed.
On the day of the experiment (postnatal day [P] 21˜24), C57BL/6J mice were anesthetized by intraperitoneal injection of ketamine (90 mg/kg) and xylazine (10 mg/kg), and the diffuser eye patches were sutured to the skin around the right eye whereas the left eye served as a control. […] The mice were recovered and monitored on a warming pad until they were fully mobile. […]
An in vivo study evaluating the expression of inflammation markers in the choroid was evaluated using FDM Mice. […]

myopic patient = experiment: Treating a myopia subject with NSAID (ketorolac ophthalmic solution); format: in vivo, human; details: one patient, both eyes, after three months of about 0.5% ketorolac, one drop at night
Protocol: The dose of ketorolac was about 0.5% weight ketorolac per unit dose (about 0.05 to 0.5 ml) and the affected eye was given one drop (about 0.05 to 0.5 ml) of ketorolac ophthalmic solution at night.

SSPC = experiment: Effect of TGF-β2 treatment on α-SMA and Col2 gene expression in SSPC (quantitative Real Time-PCR); format: cell-based, mouse; details: 0.1 to 10 ng/ml TGF-β2 for 24 hrs, dose dependent
Protocol: The SSPCs were isolated and cultured as previously described by CL Tsai et al. (Identification of multipotent stem/progenitor cells in murine sclera. Invest Ophthalmol Vis Sci 52:5481-5487, 2011). In brief, sclera from the mouse was obtained and was carefully dissected away from limbus and optic disc under a dissection microscope. After retina and choroid tissues were removed, the scleral tissue was cut into small pieces and digested with 1.5 mg/ml collagenase type I (Worthington Biochemical, Lakewood, USA) and 2 mg/ml of dispase (Roche, Basel, Switzerland) in PBS for 1 h at 37° C. to release individual cells. […]
Different concentrations of TGF-β2 were added into 12-wells of SSPCs. After 24 hrs, the images of SSPC morphology were recorded. […]
as §1, with “assessed. […]” for “assessed.”

Molecule | expression of Col2 (human SSPC) | expression of α-SMA (human SSPC) | expression of Col2 (SSPCs) | expression of α-SMA (SSPCs) | level of TNF-α in the choroids (TNF-α) | myopia progression (myopic patient) | α-SMA gene expression (SSPC; p<0.0001) | Col2 gene expression (SSPC; p=0.011)
CN1[C@@H]2CC[C@H]1C[C@@H](OC(=O)C(CO)c1ccccc1)C2 (stereo partly drawn) [atropine] | suppressed | suppressed | – | – | – | – | – | –
O=C(O)Cc1ccccc1Nc1c(Cl)cccc1Cl [diclofenac] | suppressed | suppressed | – | – | – | – | – | –
O=C(c1ccccc1)c1ccc2n1CCC2C(=O)O (stereo not drawn) [ketorolac] | suppressed | suppressed | reduced | reduced | suppressed | no myopia progression | – | –
TGF-β2: Transforming growth factor beta 2 (SEQ ID NO:5), ocular chondrogenic protein used to induce α-SMA and Col2 in SSPC (protein, listed as Homo sapiens, Transforming growth factor beta-2 (TGF-beta-2)) MHYCVLSAFLILHLVTVALSLSTCSTLDMDQFMRKRIEAIRGQILSKLKLTSPPEDYPEPEEVPPEVISIYNSTRDLLQEKASRRAAACERERSDEEYYAKEVYKIDMPPFFPSEAIPPTFYRPYFRIVRFDVSAMEKNASNLVKAEFRVFRLQNPKARVPEQRIELYQILKSKDLTSPTQRYIDSKVVKTRAEGEWLSFDVTDAVHEWLHHKDRNLGFKISLHCPCCTFVPSNNYIIPNKSEELEARFAGIDGTSTYTSGDQKTIKSTRKKNSGKTPHLLLMLLPSYRLESQQTNRRKKRALDAAYCFRNVQDNCCLRPLYIDFKRDLGWKWIHEPKGYNANFCAGACPYLWSSDTQHSRVLSLYNTINPEASASPCCVSQDLEPLTILYYIGKTPKIEQLSNMIVKSCKCS | – | – | – | – | – | – | statistically significant increase | statistically significant increase
